Reference: patent US6852863B2, “Metabolites of (3-{[4-tert-butyl-benzyl)-(pyridine-3-sulfonyl)-amino]-methyl}-phenoxy)-acetic acid” (Pfizer Inc., priority 2002, dated 2005)

How the values were obtained:
[1] = Metabolism of 14C-parent in monkey liver microsomes; assay type: in vitro ADME; conditions: 20 μM 14C-parent, NADPH, 30 minutes, 37° C.; HPLC radiochromatogram peak
Description: (§1) Human (HL-mix 12), rat, monkey and dog liver microsomes were prepared by differential centrifugation using standard procedures. Prior to use, liver microsomes were thawed on ice and reconstituted using 100 mM potassium phosphate pH 7.4. [^14C]-(3-{[4-tert-butyl-benzyl)-(pyridine-3-sulfonyl)-amino]-methyl}-phenoxy)-acetic acid was dissolved 100 mM potassium phosphate pH 7.4 at a final substrate concentration of 20 μM. Samples were pre-incubated for 3 min with microsomes (CYP 450; 0.5 μM) at 37° C. in a shaking water bath. Incubations were initiated with the addition of 100 μl cofactor (1.1 mM NADPH, 10 mM MgCl2) per 1 ml of incubation mixture. Incubations were stopped after 30 minutes by the addition of an equal volume of cold acetonitrile.
(§2) Metabolite quantification was performed by measuring the areas of individually separated HPLC peaks using the β-RAM (IN/US, Win-flow). […]
(§3) Identification of the metabolites was performed using a Finnigan TSQ 7000 triple quadrupole mass spectrometer equipped with an API-2 electrospray interface. […] The β-RAM response was recorded as a real time analog signal by the MS data collection system. The collected data from the radioactivity and MS detectors were separated by the dwell volume of flow from the MS to the radioactivity detector (corresponding to a dwell time of about 0.2 min.). […]

[2] = target: T1, rat EP2 prostaglandin E2 receptor (Rattus norvegicus, UniProt Q62928); test: Rat EP2 receptor binding assay (displacement of 3H-prostaglandin E2); conditions: 293S cell membranes expressing rat EP2, 3 nM 3H-prostaglandin E2, 1 hour at 25° C.
T1 construct: This full length receptor is used to prepare 293S cells expressing the EP2 receptor; expressed in transfected cells; membranes used in the assay
From the text: Rat EP2 Recptor Binding Assay
Assay for Binding to Prostaglandin E2 Receptors
The full length EP2 receptor is made as disclosed in Nemoto et al., Prostaglandins and other Lipid Mediators, 1997, 54, 713-725. This full length receptor is used to prepare 293S cells expressing the EP2 receptor.
293S cells expressing the rat EP2 prostaglandin E2 receptor are generated according to methods known to those skilled in the art. Typically, PCR (polymerase chain reaction) primers corresponding to the 5′ and 3′ ends of the published full length receptor are made according to the well known methods disclosed above and are used in an RT-PCR reaction using the total RNA from rat kidney as a source. […]
Membrane Preparation: All operations are performed at 4° C. […] Pelleted membranes are resuspended to 3-10 mg protein per ml, protein concentration being determined of the method of Bradford [Bradford, M., Anal. Biochem., 72, 248 (1976)]. […]
Binding Assay: Frozen membranes prepared as above are thawed and diluted to 1 mg protein per ml in Buffer A above. […] To determine the amount of ^3H-prostaglandin bound to the membranes, the dried filters are placed into plastic bags with scintillation fluid and counted in a LKB 1205 Betaplate reader (Wallac, Gaithersburg, Md.). […]

[3] = Metabolism of 14C-parent in dog liver microsomes; assay type: in vitro ADME; conditions: 20 μM 14C-parent, NADPH, 30 minutes, 37° C.; HPLC radiochromatogram peak
Description: as §1, §2, §3

T1 sequence (Q62928 whole entry): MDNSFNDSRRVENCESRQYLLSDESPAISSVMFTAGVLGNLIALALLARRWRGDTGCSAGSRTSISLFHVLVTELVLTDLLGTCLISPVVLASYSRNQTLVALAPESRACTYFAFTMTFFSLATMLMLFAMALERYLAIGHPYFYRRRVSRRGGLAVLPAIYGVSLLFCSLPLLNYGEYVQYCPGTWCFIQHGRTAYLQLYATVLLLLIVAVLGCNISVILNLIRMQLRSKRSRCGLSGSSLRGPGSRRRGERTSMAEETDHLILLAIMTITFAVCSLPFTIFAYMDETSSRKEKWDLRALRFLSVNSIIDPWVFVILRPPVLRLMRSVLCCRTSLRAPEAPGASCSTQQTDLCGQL

Percent of Radioactivity, Monkey liver microsomes [1]: 47.3%
IC50 [2]: 170 nM
Percent of Radioactivity, Dog liver microsomes [3]: 11.5%
SMILES: CC(C)(CO)c1ccc(CN(Cc2cccc(OCC(=O)O)c2)S(=O)(=O)c2cccnc2)cc1 [Metabolite M4, (3-{[[4-(2-hydroxy-1,1-dimethyl-ethyl)-benzyl]-(pyridine-3-sulfonyl)-amino]-methyl}-phenoxy)-acetic acid]
